Where “and” joins values, the source holds several entries; their conditions need not be identical. Equal values may be shown once.
Assays:
Assay type in all cases: in vivo
[1] = test system: adjuvant arthritis (AA); assay: Adjuvant arthritis (AA) in Lewis rats, inhibition of inflammation; settings: for % Inhibition (100 μl) of the inflammation of adjuvant arthritis: 100 μl SC once, 14 days before induction of AA or on day 12 after induction, day of maximal inflammation
Method: AA was induced by immunizing inbred 8-10-week old Lewis rats (Harlan-Olac Limited, Blackthorn, Oxon, UK), at the base of the tail with 1 mg/0.1 ml of killed Mycobacterium tuberculosis (Sigma) in IFA (Sigma) as described (Pearson, 1956). Arthritis of the limbs was noted to develop 12-14 days later and was scored on a scale of 0-16 summing the severity of the inflammation of each of the 4 limbs on a scale of 0-4, as described (Holoshitz et al., 1983). The peak of the arthritis usually was observed around day 26 after immunization.
Control rats were untreated or treated by injections of saline. A positive control of immunosuppression was obtained by including a group of rats treated with the corticosteroid agent dexamethasone (200 μg) administered intraperitoneally every other day beginning on day 12 after induction.
The immunomodulator of the invention (100 μl oleyl alcohol, glycerol mono-oleate, linolenyl alcohol or cetyl alcohol) was administered subcutaneously (SC) once 14 days before induction of AA or on day 12 after induction of AA. The percent inhibition of inflammation measured on the day of maximal inflammation was computed as follows: [formula] […]

[2] = test system: adjuvant arthritis (AA); assay: as above; settings: for suppression of inflammation on day of peak disease: day 26
[3] = test system: experimental autoimmune encephalomyelitis (EAE); assay: Experimental autoimmune encephalomyelitis (EAE) in Lewis rats; settings: 0.5 ml/kg SC once, 14 days before EAE induction
[4] = vs non-treated control, listed as OA

CCCCCCCCCCCCCCCCO [Cetyl alcohol, cetyl alcohol]
% Inhibition (100 μl) of the inflammation of adjuvant arthritis [1]: 66%

CCC=CCC=CC/C=C\CCCCCCCCO [Linolenyl alcohol, cis-9,12,15-octadecatrienol]
% Inhibition (100 μl) of the inflammation of adjuvant arthritis [1]: 75%

CCCCCCCC/C=C\CCCCCCCC(=O)OCC(O)CO (stereo not drawn) [Glycerol mono-oleate, glycerol monooleate]
% Inhibition (100 μl) of the inflammation of adjuvant arthritis [1]: 98%

CCCCCCCC/C=C\CCCCCCCCO [Oleyl alcohol, cis-9-octadecenol]
% Inhibition (100 μl) of the inflammation of adjuvant arthritis [1]: 78% | suppression of inflammation on day of peak disease ([2]; 10 μl SC once 14 days before induction): 14% | suppression of inflammation on day of peak disease ([2]; 50 μl SC once 14 days before induction): 61% | suppression of inflammation on day of peak disease ([2]; 100 μl SC once 14 days before induction): 78% | suppression of inflammation on day of peak disease ([2]; 500 μl SC once 14 days before induction): 90% | suppression of inflammation ([2]; 500 μl, two further experiments): 96% and 91% | % Incidence of disease [3]: 50.0% | effect on EAE clinical parameters (in words) [3]: beneficial effect on all the clinical parameters | Mean Onset of disease (Day No.) ([3]; rats without EAE counted as 25 days): 18.6 Day No. | Disease duration ([3]; rats without EAE counted as zero): 2.0 days | GMS (group mean score) ([3]; scale 0-5): 0.22 | MMS (mean maximal score) ([3]; scale 0-5): 0.88 | % Activity GMS ([3]; vs non-treated control): 77.1% | % Activity Incidence ([3]; vs non-treated control): 33.3% | % Activity MMS ([3]; vs non-treated control): 63% | % Activity GMS [3, 4]: 77.1% | % Activity MMS [3, 4]: 63.0%

CCCCCCCC/C=C\CCCCCCCC(=O)O [oleic acid, cis-9-octadecenoic acid, reference compound]
effect on inflammation of adjuvant arthritis (in words) ([1]; Lewis rats, Example 1): no effect
